Assay results from patent US20120020926A1, “COMPOSITION COMPRISING CAFTARIC ACID AND/OR DERIVATIVES THEREOF” (NESTEC S.A., priority 2009, published 2012).
Like-named read-outs stand apart in the source and are kept apart here.

Columns and labels:
[1] = system: chlorogenate esterase; conditions: Aspergillus japonicus, 1.85 mg/mL, pH 7
Protocol: A solution of chlorogenate esterase (0.8 mg, 24 U/g, from Kikkoman Japan) in 100 μl phosphate buffer (50 mM, pH 7.0) was added to a solution of caftaric acid (0.37 mg) in 100 μl phosphate buffer (50 mM, pH 7.0). The mixture was then incubated at 37° C. for 4 h. […] The supernatant was then analysed by HPLC. A reaction control was run in parallel under the same reaction conditions but without enzyme.
(§1) HPLC-DAD analysis of caftaric acid and hydrolysis products was performed on a Agilent 1100 system equipped with a Atlantis C18 reverse-phase column (4.6×100 mm, particle size 3 μm) and a diode array detector. The column was equilibrated with water containing 0.1% formic acid. After injection, a linear gradient to a final solvent composition of 55% water and 45% acetonitrile (containing 0.1% formic acid) was run within 12 min at a flow rate of 1 ml/min. Caftaric acid and caffeic acid were monitored by UV at 320 nm and were quantified using standard calibration curves.

[2] = system: liver metastasis; conditions: subcutaneous and oral administrations; cited from earlier work
[3] = system: spray-dried preparation of L. johnsonii; conditions: Lactobacillus johnsonii, 6 mM, pH 7
Protocol: 10 mg of a spray-dried preparation of L. johnsonii (3.3 E09 cfu/g) were dissolved in 100 μl of phosphate buffer (50 mM, pH 7.0). To this solution, 100 μl of a caftaric acid solution (12 mM, phosphate buffer 50 mM, pH 7.0) were added. The mixture was then incubated at 37° C. and samples were withdrawn at different reaction times. After centrifugation (3000 g, 5 min) and filtration (0.45 μm pore size syringe filters, Millipore SLHA 025 BS) the samples were analysed by HPLC.
as §1

[4] = system: L. johnsonii (CNCM I-1225) fresh cells; assay: Hydrolysis of caftaric acid with L. johnsonii (La1) fresh cells; format: in vitro ADME, Lactobacillus johnsonii; conditions: after 4 h reaction time, 37° C.
Protocol: Cells of L. johnsonii (CNCM I-1225) were grown (7.0 E08 cfu/ml) and centrifuged (5000 g, 10 min), the pellets were resuspended in phosphate buffer (50 mM, pH 7.0) at a concentration of 0.61 g/ml. To 100 μl of this cells solution, 100 μl of a solution of caftaric acid (12 mM) was added and the mixture was incubated at 37° C. Samples were withdrawn at different reaction times, centrifuged (3000 g, 5 min) and filtered through 0.45 μm pore size syringe filters (Millipore SLHA 025 BS) and analysed by HPLC.
A reaction control was run in parallel under the same reaction conditions but without bacteria.
as §1

[5] = system: L. johnsonii (CNCM I-1225) crude cell extract; assay: Hydrolysis of caftaric acid with La1 extract (lysed cells); conditions: after 2 h, 37° C.
Protocol: (§2) Cells of L. johnsonii (CNCM I-1225) were grown (7.0 E08 cfu/ml) and centrifuged (5000 g, 10 min), the pellets were resuspended in phosphate buffer (50 mM, pH 7.0) at a concentration of 0.61 g/ml. The cells were then lysed using the glass-beads method. 600 μl of cells preparation were put into a Mini-Beadbeater for 1 min of intense shaking, cooled in ice, and put another 1 min in the Mini-Beadbeater. The crude cell extract (100 μl) was then added to 100 μl of a solution of caftaric acid (12 mM, phosphate buffer 50 mM, pH 7.0) and the mixture was incubated at 37° C. Samples were withdrawn at different reaction times, centrifuged (3000 g, 5 min), filtered through 0.45 μm pore size syringe filters (Millipore SLHA 025 BS) and analysed by HPLC.
as §1

[6] = system: L. johnsonii (CNCM I-1225) crude cell extract
Protocol: as §2, §1

[7] = system: Nrf2-ARE pathway (AREc32 cells); assay: Antioxidant Responsive Element (ARE) luciferase assay; format: cell-based, human; conditions: for F/C (firefly luciferase activity): AREc reporter cell line, 24 h

SMILES | Hydrolysis of caftaric acid into caffeic acid by chlorogenate esterase (amount by HPLC) ([1]; 0 min) [%] | Hydrolysis of caftaric acid into caffeic acid by chlorogenate esterase (amount by HPLC) ([1]; 15 min) [%] | Hydrolysis of caftaric acid into caffeic acid by chlorogenate esterase (amount by HPLC) ([1]; 30 min) [%] | Hydrolysis of caftaric acid into caffeic acid by chlorogenate esterase (amount by HPLC) ([1]; 60 min) [%] | Hydrolysis of caftaric acid into caffeic acid by chlorogenate esterase (amount by HPLC) ([1]; 120 min) [%] | Hydrolysis of caftaric acid into caffeic acid by chlorogenate esterase (amount by HPLC) ([1]; 240 min) [%] | hydrolysis of caftaric acid into caffeic acid by a spray-dried preparation of La1 (amount by HPLC) ([3]; 0 min) | hydrolysis of caftaric acid into caffeic acid by a spray-dried preparation of La1 (amount by HPLC) ([3]; 15 min) | hydrolysis of caftaric acid into caffeic acid by a spray-dried preparation of La1 (amount by HPLC) ([3]; 30 min) | hydrolysis of caftaric acid into caffeic acid by a spray-dried preparation of La1 (amount by HPLC) ([3]; 60 min) | hydrolysis of caftaric acid into caffeic acid by a spray-dried preparation of La1 (amount by HPLC) ([3]; 120 min) | hydrolysis of caftaric acid into caffeic acid by a spray-dried preparation of La1 (amount by HPLC) ([3]; 240 min) | also measured
O=C(O)/C=C/c1ccc(O)c(O)c1 [Caffeic acid, Caffeic Acid] | 0 | 18 | 26 | 57 | 81 | 98 | 0 | 32 | 53 | 76 | 92 | 98 | liver metastasis [2]: significantly reduced liver metastasis
O=C(/C=C/c1ccc(O)c(O)c1)O[C@@H](C(=O)O)[C@@H](O)C(=O)O [Caftaric acid] | 99 | 82 | 64 | 43 | 19 | 2 | 99 | 68 | 47 | 24 | 8 | 2 | transformation of caftaric acid into caffeic acid [4]: all caftaric acid was transformed into caffeic acid; transformation of caftaric acid into caffeic acid [5]: all caftaric acid acid was transformed into caffeic acid; reaction rate of hydrolysis as compared to whole cells [6]: increase of the reaction rate; Nrf2-luciferase reporter activity ([7]; AREc32 cells, saturation inactivation response at higher doses): positive dose-dependent response; F/C (firefly luciferase activity) ([7]; 125 μg/ml): 2796; F/C (firefly luciferase activity) ([7]; 250 μg/ml): 5821; F/C (firefly luciferase activity) ([7]; 500 μg/ml): 5182; F/C (firefly luciferase activity) ([7]; 750 μg/ml): 25792; F/C (firefly luciferase activity) ([7]; 1000 μg/ml): 4777; F/C (firefly luciferase activity) ([7]; 1200 μg/ml): 29043
